PubChem BioAssay (NCI)
“And” between values parts separate entries of the source, which are not always exact repeats. Identical values can stand only once.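 These data come from cells grown in 96-well plates and exposed to compound for 48 hours at five concentrations. At the GI50, growth is halved. Definition used: TGI = concentration required for complete inhibition of growth.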

Assays:
Test in all cases: NCI anticancer screen, dose series, 48 h
IGROV1 ovarian = test system: IGROV1 ovarian
OVCAR-8 ovarian = test system: OVCAR-8 ovarian
RPMI-8226 leukemia = test system: RPMI-8226 leukemia
SF-268 CNS = test system: SF-268 CNS
SK-OV-3 ovarian = test system: SK-OV-3 ovarian
SW-620 colon = test system: SW-620 colon
UACC-257 melanoma = test system: UACC-257 melanoma
MOLT-4 leukemia = test system: MOLT-4 leukemia
HCT-116 colon = test system: HCT-116 colon
SK-MEL-28 melanoma = test system: SK-MEL-28 melanoma

SMILES	TGI (IGROV1 ovarian)	GI50 (OVCAR-8 ovarian)	TGI (OVCAR-8 ovarian) [µM]	GI50 (RPMI-8226 leukemia)	TGI (RPMI-8226 leukemia)	GI50 (SF-268 CNS)	TGI (SF-268 CNS)	GI50 (SK-OV-3 ovarian)	TGI (SK-OV-3 ovarian) [µM]	GI50 (SW-620 colon)	TGI (SW-620 colon)	GI50 (UACC-257 melanoma)	TGI (UACC-257 melanoma)	GI50 (MOLT-4 leukemia) [µM]	TGI (MOLT-4 leukemia)	GI50 (HCT-116 colon)	TGI (HCT-116 colon)	GI50 (SK-MEL-28 melanoma)	GI50 (IGROV1 ovarian) [µM]	TGI (SK-MEL-28 melanoma) [µM]
O=C(NC[C@H](O)CO)c1ccncc1Nc1ccc(I)cc1F	> 100 µM	> 10 µM and 37.4 µM	> 100	> 10 µM and 28.4 µM	> 100 µM	> 10 µM and 29.9 µM	> 100 µM	> 4.46 µM and 26.2 µM	> 100	0.0144 µM and 0.0188 µM	> 100 µM	0.00359 µM and < 0.01 µM	0.0403 µM and 0.0438 µM	> 79.9	> 100 µM	0.0556 µM and 0.104 µM	> 100 µM	0.00334 µM and < 0.0104 µM		
O=[N+]([O-])c1cccc([As]=[As]c2cccc([N+](=O)[O-])c2)c1 (stereo not given)	0.211 µM	0.141 µM	0.284	0.0495 µM	0.18 µM	0.0819 µM	0.228 µM	0.177 µM	0.317	0.046 µM	0.195 µM	0.122 µM	0.252 µM	0.104	0.353 µM	0.0627 µM	0.181 µM	0.136 µM	0.0587	0.305
C=C(CO[Si](C)(C)C(C)(C)C)C(C)=O	> 69.7 µM		37.5		> 77.8 µM		> 74.6 µM		> 100		38.9 µM		34.3 µM		> 21.2 µM		27 µM			34.6
O=C(Nc1ccc(Cl)cc1)Nc1ccc(Nc2nncc3ccccc23)cc1	30.7 µM	3.12 µM	12.4	2.5 µM	8.75 µM	3.19 µM	28.1 µM	3.05 µM	17.7	3.16 µM	18.6 µM	3.41 µM	10.8 µM	2.09	6.36 µM	2.46 µM	12 µM	3.04 µM	2.52	12.8
CN(C(=O)c1ccco1)C(=S)N1CCN(c2ccccc2)CC1	> 100 µM		> 100		> 100 µM		> 100 µM		> 100		> 100 µM		> 100 µM		> 100 µM		> 100 µM			> 100
COC(=O)C1=CC2C(=O)OC1CC2C#N (stereo not given)	> 100 µM		> 100		> 100 µM		> 100 µM		> 100		> 100 µM		> 100 µM		> 100 µM		> 100 µM			> 100
CC#CC(=O)SCCNC(=O)CC	> 10 µM		> 10		> 10 µM		> 10 µM		> 10		> 10 µM		> 10 µM		> 8.86 µM		> 10 µM			> 10
CC(=O)C1C(=O)C(=O)N(c2ccccc2C(C)C)C1=O (stereo not given)	> 100 µM		> 100		> 100 µM		> 100 µM		> 100		> 100 µM		> 100 µM		> 100 µM		> 100 µM			> 100
COc1ccc(/C=C\c2cc(OC)c(OC)c(OC)c2)cc1OC	40.4 µM and 21.5 µM	0.275 µM		0.224 µM	12.4 µM and 15.8 µM	0.214 µM	40.4 µM and > 100 µM	0.187 µM	> 100	0.0472 µM	40.4 µM and > 100 µM	6.09 µM	40.4 µM and > 100 µM		28 µM and 14.6 µM	0.0482 µM	40.4 µM and 24.4 µM		0.0537	> 100
COc1c(Cl)cc(NC(=S)C#N)cc1Cl	> 82.6 µM		> 69.3		> 58.7 µM		> 89.9 µM		> 74.7		> 100 µM		53.9 µM		> 100 µM		31.6 µM			> 71.4
Nc1ncnc2c1nnn2C1CCC(CP(=O)(O)O)C1 (stereo not given)	> 100 µM		> 100		> 100 µM		> 100 µM		> 100		> 100 µM		> 100 µM		> 100 µM		> 100 µM			> 100
CN(C)c1ccc2c(c1)OC(N)=C(C#N)C2c1ccc2c(c1)CCO2 (stereo not given)	> 100 µM	0.39 µM	39.9	0.48 µM	28.3 µM	0.524 µM	97.4 µM	0.224 µM	> 73.9	< 0.0294 µM	> 100 µM	27 µM	> 100 µM	0.3	32.4 µM	< 0.0201 µM	8.52 µM	1.92 µM	0.326	29.5
Nc1nc(Nc2ccc(C3CCC(N4CCOCC4)CC3)cc2)nn1-c1ccccn1 (stereo not given)	> 100 µM	11.6 µM	> 100	2.57 µM	6.1 µM	2.93 µM	> 100 µM	18.1 µM	> 100	3.4 µM	> 100 µM	3.43 µM	12.2 µM	2.86	20.1 µM	2.92 µM	20.7 µM	4.34 µM	3.57	16.4
O=C(NN1C(=O)CSC12CCCC2)c1[nH]c2ccc(Br)cc2c1-c1ccccc1	> 100 µM	41 µM	> 100	30.2 µM	86.5 µM	52.1 µM	> 100 µM	> 100 µM	> 100	74.6 µM	> 100 µM	> 100 µM	> 100 µM	21.9	90.4 µM	26.7 µM	> 100 µM	44 µM	21.8	> 100
O=c1nc2oc3ccc4ccccc4c3cc-2s1	> 100 µM	29.4 µM	> 100	50.9 µM	> 100 µM	7.97 µM	> 100 µM	15.1 µM	> 100	1.05 µM	> 100 µM	> 69.9 µM	> 100 µM	1.81	> 100 µM	1.14 µM	> 100 µM	14.6 µM	10.2	> 100
COC(=O)C1=C(c2cc(OC)c(OC)c(OC)c2)OC(c2ccc(OC)c(OC)c2)C1 (stereo not given)	> 100 µM		> 100		> 100 µM		> 100 µM		> 100		87 µM		> 100 µM		51.2 µM		> 100 µM			> 100
CCCCN(CCCC)c1ccc(C(=N)c2ccc(N(CCCC)CCCC)cc2)cc1	2.66 µM	0.396 µM	1.37	0.396 µM	1.88 µM	0.679 µM	1.93 µM	1.19 µM	2.47	0.306 µM	1.29 µM	0.561 µM	1.63 µM	0.604	2.14 µM	0.339 µM	1.31 µM	1.05 µM	1.04	2.41
O=CC1CCCc2ccccc21 (stereo not given)	> 100 µM		> 100		> 65.8 µM		> 31.6 µM		> 100		> 56.6 µM		> 100 µM		> 100 µM		> 77.2 µM			> 100
COc1ccc2c(c1)C(=O)c1c-2c(N(C)C)nc2ccccc12	> 100 µM	> 100 µM	> 100	> 100 µM	> 100 µM	77.8 µM	> 100 µM	> 100 µM	> 100	> 100 µM	> 100 µM	> 100 µM	> 100 µM	> 100	> 100 µM	> 100 µM	> 100 µM	> 100 µM	> 100	> 100
O=c1c2ccccc2nc(-c2ccccc2)n1NC1OC(CO)C(O)C(O)C1O (stereo not given)	> 100 µM		> 100		> 100 µM		> 100 µM		> 100		> 100 µM		> 100 µM		> 100 µM		> 100 µM			> 100
